As a reminder, the AC50 is the midpoint of the concentration-response curve, whichever way the signal moves. Low values mean greater potency, high ones weaker potency.

Structures are written as SMILES.

Consider 33 compounds from patent publication US20230104936A1, “TRPML MODULATORS” (Casma Therapeutics, Inc., priority 2019, published 2023).

This assay concerns TFEB. Nature of the assay: TFEB nuclear translocation assay, HeLa wt cells. The conditions noted are these: Homo sapiens, HeLa, 2 h, 2 hrs compound treatment, Table 1 does not say HeLa wt or TRPML1 KO. It counts as cell-based. In short, it runs like this: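 HeLa wt or TRPML1 KO cells treated 2 hrs with compounds at 37° C, fixed in 4% PFA, immunostained with anti-TFEB plus Alexa 488 secondary and Hoechst. Imaged at ×20, four fields/well; read-out is nuclear/perinuclear-ring TFEB intensity ratio, reported as AC50.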

As for `CN(C)S(=O)(=O)c1ccc(S(=O)(=O)Nc2ccccc2N2CCC(C(C)(F)F)CC2)cc1` [Compound A-506, N4-{2-[4-(1,1-difluoroethyl)piperidin-1-yl]phenyl}-N1,N1-dimethylbenzene-1,4-disulfonamide], the AC50 is not above 2000 nM.

`COc1ccc(S(=O)(=O)Nc2ccccc2N2CCC(c3ncc(Cl)cc3F)CC2)cc1` [Compound A-147, N-{2-[4-(5-chloro-3-fluoropyridin-2-yl)piperidin-1-yl]phenyl}-4-methoxybenzene-1-sulfonamide] showed an AC50 of 2010 to 8000 nM.

In the case of `C[C@H]1CN(CC2CCN(c3c(F)cccc3NS(=O)(=O)c3ccc(S(=O)(=O)N(C)C)cc3)CC2)C[C@H](C)O1` (racemic) [Compound A-843, rel-N1-(2-(4-((2,6-dimethylmorpholino)methyl)piperidin-1-yl)-3-fluorophenyl)-N4,N4-dimethylbenzene-1,4-disulfonamide], the AC50 is not above 2000 nM.

Regarding `CN(C)S(=O)(=O)c1ccc(S(=O)(=O)N(C)c2cccc(Cl)c2N2CCOCC2)cc1` [Compound A-286, N1-[3-chloro-2-(morpholin-4-yl)phenyl]-N1,N4,N4-trimethylbenzene-1,4-disulfonamide], the AC50 was not below 10000 nM.

Compound `C[C@@H]1CN(c2nn(S(=O)(=O)c3ccc(S(=O)(=O)N(C)C)cc3)c3ccccc23)C[C@H](C)C1(F)F` [Compound A-968, 4-({3-[(3R,5S)-4,4-difluoro-3,5-dimethylpiperidin-1-yl]-1H-indazol-1-yl}sulfonyl)-N,N-dimethylbenzene-1-sulfonamide] registered an AC50 not above 2000 nM.

`COc1ccc(S(=O)(=O)Nc2ccccc2N2CCC(c3ccc(F)cc3F)CC2)cn1` [Compound A-123, N-{2-[4-(2,4-difluorophenyl)piperidin-1-yl]phenyl}-6-methoxypyridine-3-sulfonamide] displayed an AC50 of 2010 to 8000 nM.

`CN(C)S(=O)(=O)c1ccc(S(=O)(=O)Nc2ccccc2N2CCC(c3cccc(-c4nn[nH]n4)c3)CC2)cc1` [Compound A-272, N1,N1-dimethyl-N4-(2-{4-[3-(2H-1,2,3,4-tetrazol-5-yl)phenyl]piperidin-1-yl}phenyl)benzene-1,4-disulfonamide] returned an AC50 not below 10000 nM.

In turn, `COc1ccc(S(=O)(=O)Nc2cnncc2N2CCC(c3ncc(F)cc3F)CC2)cc1` [Compound A-206, N-{5-[4-(3,5-difluoropyridin-2-yl)piperidin-1-yl]pyridazin-4-yl}-4-methoxybenzene-1-sulfonamide] yielded an AC50 not below 10000 nM.

`COCC1(C)CCN(c2ccccc2NS(=O)(=O)c2ccc(C3CC3)cc2)CC1` [Compound A-621, 4-cyclopropyl-N-{2-[4-(methoxymethyl)-4-methylpiperidin-1-yl]phenyl}benzene-1-sulfonamide]: the AC50 was not above 2000 nM.

With `CN(C)S(=O)(=O)c1ccc(S(=O)(=O)N(C)c2ccc(F)cc2N2CCC3(CC2)COC(C)(C)C3)cc1` [Compound A-729, N1-(2-{3,3-dimethyl-2-oxa-8-azaspiro[4.5]decan-8-yl}-4-fluorophenyl)-N1,N4,N4-trimethylbenzene-1,4-disulfonamide], the AC50 is 2010 to 8000 nM.

Regarding `CC(c1cccc(F)c1N1CCC(CN2CC3CCC(C2)C3(F)F)CC1)S(=O)(=O)c1ccc(S(=O)(=O)N(C)C)cc1` (stereo not drawn) [Compound A-985, 4-(1-{2-[4-({8,8-difluoro-3-azabicyclo[3.2.1]octan-3-yl}methyl)piperidin-1-yl]-3-fluorophenyl}ethanesulfonyl)-N,N-dimethylbenzene-1-sulfonamide], the AC50 was not above 2000 nM.

Compound `CN(C)S(=O)(=O)c1ccc(S(=O)(=O)Nc2cccc(F)c2N2CCC3(CCNC3=O)CC2)cc1` [Compound A-792, N4-(3-fluoro-2-{1-oxo-2,8-diazaspiro[4.5]decan-8-yl}phenyl)-N1,N1-dimethylbenzene-1,4-disulfonamide] registered an AC50 not below 10000 nM.

`Cc1ccc(S(=O)(=O)n2cc3c(N4CCN(C5CCCCC5)CC4)cccc3n2)cc1` [Compound A-561] showed an AC50 of 2010 to 8000 nM.

In turn, `CN(C)S(=O)(=O)c1ccc(S(=O)(=O)Nc2cc(F)ccc2N2CCC3(CC2)COC(C)(C)C3)cc1` [Compound A-605, N4-(2-{3,3-dimethyl-2-oxa-8-azaspiro[4.5]decan-8-yl}-5-fluorophenyl)-N1,N1-dimethylbenzene-1,4-disulfonamide] yielded an AC50 not above 2000 nM.

As to `CN(C)S(=O)(=O)c1ccc(S(=O)(=O)Nc2cc(Cl)ccc2N2CCOCC2)cc1` [Compound A-290, N4-[5-chloro-2-(morpholin-4-yl)phenyl]-N1,N1-dimethylbenzene-1,4-disulfonamide], the AC50 was not below 10000 nM.

The compound `CCC1(N2CCCCC2)CCN(c2ccccc2NS(=O)(=O)c2ccc(S(=O)(=O)N(C)C)cc2)CC1` [Compound A-475, N4-(2-{4′-ethyl-[1,4′-bipiperidin]-1′-yl}phenyl)-N1,N1-dimethylbenzene-1,4-disulfonamide] displayed an AC50 not above 2000 nM.

`CC(c1cccc(F)c1N1CCC(CN2CCC(F)(F)CC2)CC1)S(=O)(=O)c1ccc(S(=O)(=O)N(C)C)cc1` (stereo not drawn) [Compound A-801, 4-((1-(2-(4-((4,4-difluoropiperidin-1-yl)methyl)piperidin-1-yl)-3-fluorophenyl)ethyl)sulfonyl)-N,N-dimethylbenzenesulfonamide] had an AC50 not above 2000 nM.

With `COCC1(C)CCN(c2ccccc2NS(=O)(=O)Cc2ccccc2OC)CC1` [Compound A-595, N-{2-[4-(methoxymethyl)-4-methylpiperidin-1-yl]phenyl}-1-(2-methoxyphenyl)methanesulfonamide], the AC50 fell in the range of 2010 to 8000 nM.

`CC(c1cccc(F)c1N1CCC(CN2C3CCC2COC3)CC1)S(=O)(=O)c1ccc(S(=O)(=O)N(C)C)cc1` (stereo not drawn) [Compound A-832, 4-((1-(2-(4-((3-oxa-8-azabicyclo[3.2.1]octan-8-yl)methyl)piperidin-1-yl)-3-fluorophenyl)ethyl)sulfonyl)-N,N-dimethylbenzenesulfonamide]: the AC50 is not above 2000 nM.

For `CNC(=O)c1ccc(S(=O)(=O)Nc2ccccc2N2CCC(c3ccc(Cl)cc3F)CC2)cc1` [Compound A-48, 4-({2-[4-(4-chloro-2-fluorophenyl)piperidin-1-yl]phenyl}sulfamoyl)-N-methylbenzamide], the AC50 is not below 10000 nM.

With `COCC1(C)CCN(c2ccccc2NS(=O)(=O)c2ccc3c(c2)CC(C)(C)C3=O)CC1` [Compound A-639, N-{2-[4-(methoxymethyl)-4-methylpiperidin-1-yl]phenyl}-2,2-dimethyl-1-oxo-2,3-dihydro-1H-indene-5-sulfonamide], the AC50 is not below 10000 nM.

Consider `O=S(=O)(c1ccc2c(c1)CCC2)N1Cc2cccc(N3CCOCC3)c2C1` [Compound A-819, 2-(2,3-dihydro-1H-indene-5-sulfonyl)-4-(morpholin-4-yl)-2,3-dihydro-1H-isoindole], for which the concentration at half-maximal activity (AC50) is not below 10000 nM.

Regarding `CC1(C)CC2(CCN(c3ccccc3NS(=O)(=O)c3ccc4c(c3)OC(C)(C)C4)CC2)CO1` [Compound A-720, N-(2-{3,3-dimethyl-2-oxa-8-azaspiro[4.5]decan-8-yl}phenyl)-2,2-dimethyl-2,3-dihydro-1-benzofuran-6-sulfonamide], the AC50 was 2010 to 8000 nM.

For `CC(C(=O)N1CCN(c2ccccc2NS(=O)(=O)c2ccc(S(=O)(=O)N(C)C)cc2)CC1)C(C)(C)C` (stereo not drawn) [Compound A-428, N1,N1-dimethyl-N4-{2-[4-(2,3,3-trimethylbutanoyl)piperazin-1-yl]phenyl}benzene-1,4-disulfonamide], the AC50 is not above 2000 nM.

For `Cc1ccc(S(=O)(=O)Nc2ccccc2N2CCN(C(=O)C(=O)c3ccccc3)CC2)cc1` [Compound A-350, 4-methyl-N-{2-[4-(2-oxo-2-phenylacetyl)piperazin-1-yl]phenyl}benzene-1-sulfonamide], the AC50 lay in the range of 2010 to 8000 nM.

Compound `COCC1(C)CCN(c2ccccc2NS(=O)(=O)c2ccc(F)c(C)c2)CC1` [Compound A-616, 4-fluoro-N-{2-[4-(methoxymethyl)-4-methylpiperidin-1-yl]phenyl}-3-methylbenzene-1-sulfonamide] yielded an AC50 of 2010 to 8000 nM.

For the compound `COCC1(C)CCN(c2ccccc2NS(=O)(=O)Cc2ccc(C)c(F)c2)CC1` [Compound A-646, 1-(3-fluoro-4-methylphenyl)-N-{2-[4-(methoxymethyl)-4-methylpiperidin-1-yl]phenyl}methanesulfonamide], the AC50 is 2010 to 8000 nM.

In turn, `COCC1CCN(c2ccccc2NS(=O)(=O)c2ccc(S(=O)(=O)N(C)C)cc2)CC1` [Compound A-434, N4-{2-[4-(methoxymethyl)piperidin-1-yl]phenyl}-N1,N1-dimethylbenzene-1,4-disulfonamide] displayed an AC50 not above 2000 nM.

For `C[C@@H](c1cccc(F)c1N1CCC(F)(F)CC1)S(=O)(=O)c1ccc(S(=N)(=O)N(C)C)cc1` (single isomer, unassigned) [Compound A-936], the AC50 is not above 2000 nM.

Regarding `CC(C)S(=N)(=O)c1ccc(S(=O)(=O)[C@H](C)c2cccc(F)c2N2CCCCC2)cc1` (stereo partly drawn) [Compound A-922, (4-(((R)-1-(3-fluoro-2-(piperidin-1-yl)phenyl)ethyl)sulfonyl)phenyl)(imino)(isopropyl)-λ^6-sulfanone], the AC50 is not below 10000 nM.

As to `CC(C)C(=O)N1CCN(c2ccccc2NS(=O)(=O)c2ccc(S(=O)(=O)N(C)C)cc2)CC1` [Compound A-322, N1,N1-dimethyl-N4-{2-[4-(2-methylpropanoyl)piperazin-1-yl]phenyl}benzene-1,4-disulfonamide], the AC50 fell in the range of 8010 to 9990 nM.

Regarding `C[C@@H](c1cccc(F)c1N1CCCCC1)S(=O)(=O)c1ccc(S(=N)(=O)N(C)C)cc1` (single isomer, unassigned) [Compound A-929], the AC50 is not above 2000 nM.

On to `Cc1ccc(S(=O)(=O)C(C)c2cccc(F)c2N2CCC(CN3C4CCC3COC4)CC2)cc1` (stereo not drawn) [Compound A-905, 8-[(1-{2-fluoro-6-[1-(4-methylbenzenesulfonyl)ethyl]phenyl}piperidin-4-yl)methyl]-3-oxa-8-azabicyclo[3.2.1]octane], for which the AC50 is not above 2000 nM.
